According to patent publication US20230255975A1, “METHODS FOR TREATING CANCER WITH COMBINATION THERAPIES” (Celgene Corporation, priority 2020, published 2023):
Like-named read-outs stand apart in the source and are kept apart here.

What was measured:
[1] = test system: Ikaros (IKZF1), Aiolos (IKZF3) and ZFP91; experiment: Substrate degradation by immunoblotting; type: cell-based; settings: single agent
Protocol: Effect of NEK2 downregulation on Compound 5 and Compound 6-induced substrate degradation. […] The effect of NEK2 knockdown on pomalidomide mediated substrate degradation was also studied. Control and NEK2 shRNA cells were incubated to varying concentrations of pomalidomide. Pomalidomide treatment degraded Ikaros (IKZF1), Aiolos (IKZF3) and ZFP91 in a concentration dependent manner in control shRNA lines. A similar pattern of substrate degradation was maintained in NEK2 knockdown cell lines.

Mc-CAR cell line = experiment: Proliferation assay; type: cell-based; settings: 72 h; MC-CAR; Day 3 post treatment; NEK2 inhibitor; read-out: IC50 concentration, proliferation
Protocol: (§1) Proliferation and viability assays: Cell growth curves were determined by monitoring the viability of cells with Trypan blue exclusion on a Vi-Cell-XR (Becton Dickinson, Franklin Lakes, N.J., USA). Proliferation assays were performed in triplicate at least three times (n=3) using (3H)-thymidine incorporation. All data were plotted and analyzed using GraphPad Prism 7 (GraphPad Software, La Jolla, Calif., USA) software, represented as the mean with an error determined as ±s.d.
(§2) Proliferation and viability assay. Cell growth curves were determined by monitoring the viability of cells with Trypan blue exclusion on a Vi-Cell-XR (Becton Dickinson, Franklin Lakes, N.J., USA). Cell lines were plated in triplicate in 96-well round-bottom plates with the indicated drug concentrations or knockdown cells. Proliferation assays were performed in triplicate at least three times (n=3) using either the WST-1 tetrazolium salt (Roche Applied Science) reagent used according to the manufacturer's specifications or by (3H)-thymidine incorporation as previously described (Bjorklund et al., Blood Cancer Journal 5, e354, 2015). All data were plotted and analyzed using GraphPad Prism 7 (GraphPad Software, La Jolla, Calif., USA) software, represented as the mean with an error determined as ±s.d.

H929 cell line = experiment: Proliferation assay; type: cell-based; settings: Homo sapiens, read-out: IC50 concentration, proliferation
Protocol: as §1, §2

H929-PR cell line = experiment: Proliferation assay; type: cell-based; settings: isogenic sensitive/resistant comparison, read-out: IC50 concentration, proliferation
Protocol: as §2

K12PE-PR cell line = experiment: Proliferation assay; type: cell-based; settings: for IC50: K12PE-PR, isogenic sensitive/resistant comparison, read-out: IC50 concentration, proliferation
Protocol: as §1
as §1, with “assay.” for “assays:”, “Cell lines” for “Proliferation assays”, “plated” for “performed”, “in 96-well round-bottom plates with the indicated drug concentrations or knockdown cells. […]” for “at least three times (n=3) using (3H)-thymidine incorporation.”

K12PE cell line = experiment: Proliferation assay; type: cell-based; settings: for IC50: K12PE, read-out: IC50 concentration, proliferation
Protocol: as §1
as §1, with “assay.” for “assays:”, “Cell lines” for “Proliferation assays”, “plated” for “performed”, “in 96-well round-bottom plates with the indicated drug concentrations or knockdown cells. […]” for “at least three times (n=3) using (3H)-thymidine incorporation.”

AMO1 cell line = experiment: Proliferation assay; type: cell-based; settings: AMO1; for IC50: Homo sapiens, read-out: IC50 concentration, proliferation
Protocol: as §1
as §1, with “assay.” for “assays:”, “Cell lines” for “Proliferation assays”, “plated” for “performed”, “in 96-well round-bottom plates with the indicated drug concentrations or knockdown cells. […]” for “at least three times (n=3) using (3H)-thymidine incorporation.”

[2] = test system: AMO1-PR (pomalidomide resistant) cell line; experiment: Proliferation assay; type: cell-based; settings: for IC50: isogenic sensitive/resistant comparison, read-out: IC50 concentration, proliferation
Protocol: as §1
as §1, with “assay.” for “assays:”, “Cell lines” for “Proliferation assays”, “plated” for “performed”, “in 96-well round-bottom plates with the indicated drug concentrations or knockdown cells. […]” for “at least three times (n=3) using (3H)-thymidine incorporation.”

[3] = test system: CKS1B and E2F2 in EJM and EJM-PR cell lines; experiment: CKS1B and E2F2 in response to Pom; type: cell-based; settings: isogenic EJM and EJM-PR; FIG. 12
Protocol: Effects of Pomalidomide (Pom) on CKS1B and E2F2 in Pom sensitive and resistant cell lines. […] Since Aiolos was not degraded in the EJM-PR cell line consistent with the absence of CKS1B and E2F2 downregulation, the binding of Aiolos on the transcriptional start sites (TSS) of CKS1B and E2F2 was analyzed.

[4] = test system: PLK1 transcript in MM1.S cells; experiment: PLK1 transcript levels (qPCR); type: cell-based; settings: FIG. 2D
Protocol: RNA Extraction, Reverse Transcription, and Real-Time PCR Analysis: Total RNA was extracted using a RNeasy plus kit (Qiagen, Germantown, Md., USA) and reverse-transcribed using an iScrip reverse transcription kit (Bio-Rad, Philadelphia, Pa., USA). Quantitative real-time PCR (qPCR) analyses were performed using Taqman PCR Master Mix and the ViiA 7 Real-Time PCR System (Applied Biosystems, Foster City, Calif., USA). Gene expressions were calculated following normalization to GAPDH levels using the comparative CT method (ΔΔCT method). The primer sequences for qPCR are following:
The effects of pomalidomide in isogenic sensitive (EJM) and resistant (EJM-PR) and MM1.S cell lines was analyzed. […] To determine the role of PLK1 in pomalidomide response, EJM and EJM-PR cell lines were treated with pomalidomide and analyzed changes in PLK1 levels and downstream signaling. […] The changes in PLK1 transcript levels were further examined in response to pomalidomide treatment in MM1. […] Since changes in PLK1 levels are due to decrease in PLK1 transcription in response to antiproliferative compounds, the effects of Aiolos and Ikaros knockdowns on PLK1 levels using MM1.S cells with inducible expression of Aiolos and Ikaros shRNAs were analyzed. […]

[5] = test system: PLK1 signaling in MM1.S cells; experiment: Immunoblot of PLK1 signaling; type: cell-based; settings: MMS.1 cells, increasing concentrations; FIG. 2C
Protocol: (§3) Immunoblotting: Immunoblot analysis was performed using WES kits, (Protein Simple, San Jose, Calif., USA) at least two times each (n≥2), where the best representative is shown.
(§4) The effects of pomalidomide in isogenic sensitive (EJM) and resistant (EJM-PR) and MM1.S cell lines was analyzed. […] To determine the role of PLK1 in pomalidomide response, EJM and EJM-PR cell lines were treated with pomalidomide and analyzed changes in PLK1 levels and downstream signaling. […] The changes in PLK1 transcript levels were further examined in response to pomalidomide treatment in MM1. […] Confocal microscopy was performed to study changes in PLK1 and CDC25C staining in MM1.S cells and a decrease in PLK1 levels and simultaneous decrease in CDC25C staining in response to pomalidomide and Compound 5 treatments was observed. […] Further analysis of the ChIP-seq datasets of Aiolos confirmed binding of Aiolos on TSS of PLK1 with overlapping transcriptional activation H3K27Ac signature extrapolated from publicly available ChIP-seq datasets in GM12878 cell line (Encode project). Since changes in PLK1 levels are due to decrease in PLK1 transcription in response to antiproliferative compounds, the effects of Aiolos and Ikaros knockdowns on PLK1 levels using MM1.S cells with inducible expression of Aiolos and Ikaros shRNAs were analyzed. Both Aiolos and Ikaros knock down lead to a decrease in PLK1 levels (FIG. 2F), indicating transcriptional regulation of PLK1 by substrates of Cereblon.

[6] = test system: PLK1, pCDC25C and CDC25C in EJM cells; experiment: Immunoblot of PLK1 signaling; type: cell-based; settings: EJM (sensitive) cells only, not EJM-PR
Protocol: as §3, §4

Control shRNA cell lines = experiment: Biparametric Annexin V and Propidium Iodide assay; type: cell-based
Protocol: (§5) Biparametric assay for detection of cell cycle and apoptosis. Cell viability assay with Annexin V-FITC and propidium iodide was performed according to the published protocol cycle (Rieger et al., J Vis Exp. 2011, (50):2597; Léonce et al., Mol Pharmacol. 2001, 60(6):1383-1391).
(§6) Pomalidomide treatment combined with NEK2 inhibition increases apoptosis. Biparametric Annexin V and Propidium Iodide (PI) assay was performed to analyze cell cycle and apoptosis in the same sample and to quantify the proportion of cells undergoing apoptosis at each phase of cell cycle (Rieger et al., J Vis Exp. 2011, (50):2597; Léonce et al., Mol Pharmacol. 2001, 60(6):1383-1391). Control shRNA and NEK2 shRNA cell lines were treated with pomalidomide and followed cell cycle and apoptosis for the duration of two cell cycles. At 72 hours about 5.04% cells in the control shRNA lines were apoptotic compared to 21.1% apoptotic cells in NEK2 shRNA cell lines. […] At 96 hours about 9.5% of the cells in control shRNA lines and 24.7% of the NEK2 shRNA cell lines were apoptotic, and a majority of apoptotic cells were again contributed from G1-S phase of cell cycle. […] Combination of these two agents results in apoptosis of 20-25% cells in each cycle, with majority of apoptotic cells contributed from G1/S phase of cell cycle.

NEK2 shRNA cell lines = experiment: Biparametric Annexin V and Propidium Iodide assay; type: cell-based
Protocol: as §5, §6

[7] = test system: other kinases, including Cdk1 and Aurora B; settings: selective inhibitors of NEK2; Henise 2011, Innocenti 2012; cited from earlier work
[8] = NCI-H929, 72 h, Day 3 post treatment, NEK2 inhibitor
[9] = NCI-H929, isogenic sensitive/resistant comparison
[10] = 72 h, Day 3 post treatment, NEK2 inhibitor
[11] = isogenic sensitive/resistant comparison

| IC50 (H929 cell line; [8]) [µM] | IC50 (H929 cell line; [9]) [µM] | IC50 (H929-PR cell line) [µM] | Compound | IC50 (K12PE-PR cell line) [µM] | IC50 (K12PE cell line; [10]) [µM] | IC50 (K12PE cell line; [11]) [µM] | IC50 (AMO1 cell line; [10]) [µM] | IC50 (AMO1 cell line; [11]) [µM] | IC50 [2] [µM] | also measured |
| --- | --- | --- | --- | --- | --- | --- | --- | --- | --- | --- |
| 0.37 | 0.37 | 0.27 | C#CC(=O)Nc1ccc2c(c1)/C(=C/c1[nH]c(CC)nc1C)C(=O)N2 [JH295, (Z)—N-(3-((2-ethyl-4-methyl-1H-imidazol-5-yl)methylene)-2-oxoindolin-5-yl)propiolamide] | 10.8 | 4 | 4 | 0.48 | 0.48 | 0.31 | substrate degradation (Ikaros, Aiolos, ZFP91) in comparison to DMSO control [1]: No effect; IC50 (Mc-CAR cell line): 0.56 µM |
|  |  |  | Nc1cccc2c1C(=O)N(C1CCC(=O)NC1=O)C2=O (stereo not drawn) [Compound 1, 4-amino-2-(2,6-dioxopiperidine-3-yl)isoindoline-1,3-dione] |  |  |  |  |  |  | CKS1B and E2F2 expression [3]: downregulated at the transcriptional level only in Pom sensitive cells; PLK1 transcript levels [4]: decreased PLK1 transcript levels in a dose dependent manner; PLK1 signaling [5]: dose dependent decrease; PLK1 levels and downstream effector pCDC25C and CDC25C [6]: dose dependent decrease; apoptotic cells (Control shRNA cell lines; 72 hours): about 5.04%; apoptotic cells (Control shRNA cell lines; 96 hours): about 9.5%; apoptotic cells (NEK2 shRNA cell lines; 72 hours): 21.1%; apoptotic cells (NEK2 shRNA cell lines; 96 hours): 24.7%; Synergy of combination with JQ1 on proliferation (K12PE-PR cell line; Pom resistant K12PE-PR, in combination with JQ1): synergistically decreased proliferation; Synergy analysis (Calcusyn) of combination with JQ1 on proliferation (K12PE cell line; K12PE cells, in combination with JQ1): synergistic; Synergy with trametinib on proliferation (AMO1 cell line; in combination with trametinib): strong synergy; Synergy with trametinib on proliferation ([2]; in combination with trametinib): strong synergy |
| 8 | 7.9 | 5.2 | CC(/C=C\C(F)(F)F)Oc1cc(-c2cc(-c3cc(CN(C)C)cs3)cnc2N)ccc1C(N)=O (racemic) [Rac-CCT 250863, 4-[2-amino-5-[4-[(dimethylamino)methyl]-2-thienyl]-3-pyridinyl]-2-[[(2Z)-4,4,4-trifluoro-1-methyl-2-buten-1-yl]oxy]benzamide] | 5.17 | 8.7 | 8.5 | 7.1 | 7 | 3.6 | Selectivity: effect on other kinases, including Cdk1 and Aurora B [7]: low effect on other kinases |
